The values below are quoted from earlier work in US5480649A, “Procaterol-containing preparation for application to the skin” (Teikoku Seiaku Kabushiki Kaisha, priority 1990, dated 1996).

The structures appear in SMILES notation.

This series has as its system β-receptor of sympathetic nerves. Particulars: background statement.

With `CCC(NC(C)C)C(O)c1ccc(O)c2[nH]c(=O)ccc12` (centres unmarked) [procaterol], the bronchodilating activity result is “strong bronchodilating activity in very small amounts” and the “duration of the activity” value is at least 8 h.
